Assay results published in patent publication US11426406B2, “Compositions and methods for treating lysosomal storage disorders” (GEORGETOWN UNIVERSITY, priority 2017, dated 2022).

Experiments:
Assay type in all cases: in vivo
[1] = system: male Sgsh transgenic mice (MPS); test: Open-field anxiety test in MPS mice (Sanfilippo A model); details: daily I.P. 21 days, nilotinib 10 mg/kg, bosutinib 5 mg/kg, 5 minute trial, FIG. 2C
Procedure: Open-field Anxiety: Mice were placed in the open field arena for 5 minutes. Animals were tracked by photocell beams along the arena floor. Data were collected and analyzed for the number of entries into the center zone of the arena, the total distance (cm) traveled within the center zone, the amount of time (sec) spent in the center zone, the total distance traveled (cm) in the peripheral wall zone of the arena, the amount of time spent (sec) in the wall zone, the total distance traveled (cm) during the 5 minute trial, the total time spent moving ‘total ambulatory time’ (sec) during the 5 minute trial, and the average velocity (cm/sec) during the 5 minute trial.

[2] = system: male Sgsh transgenic mice (MPS); test: Post-treatment rotarod test in MPS mice (Sanfilippo A model); details: daily I.P. 21 days, nilotinib 10 mg/kg, bosutinib 5 mg/kg, vs DMSO and non-TG controls, FIG. 3
Procedure: (§1) Twelve 8-9 month old, male Sgsh transgenic mice (MPS) were used for all experiments and were compared to fourteen non-transgenic age-matched, littermates (non-TG). […] Treatment lasted for 21 days. At the end of the treatment period the mice underwent behavioral testing again and Western blot analysis was performed.
Rotarod: Mice were placed on the rotarod apparatus which sped up to 50 rpm, over the course of 5 minutes for 3-5 trials, with a minimum of 30 minutes rest between trials. Data collected were the time the animal remained ambulatory on the rotating rod, in seconds, labelled “latency to fall.” Data is also presented as “percentage difference” where all groups are normalized to the non-transgenic, untreated group, assuming non-transgenic, untreated animals are preforming at 100%.
(§2) Post-treatment rotarod MPS versus non-TG littermate mice: After the behavioral tests were conducted the symptomatic MPS mice were divided into three groups (n=4). […] There were three control groups made of age matched non-TG littermate controls (n=4, 5) which were treated in the same way. Behavioral tests were repeated and data collected is referred to as “post-treatment.” Since there was no significant difference between the control non-TG treatment groups, they were combined into one non-TG control group.

[3] = system: male Sgsh transgenic mice (MPS); test: Open-field locomotion test in MPS mice (Sanfilippo A model); details: daily I.P. 21 days, nilotinib 10 mg/kg, bosutinib 5 mg/kg, FIG. 2C
Procedure: as §1
Open-field Locomotion: Mice were placed in the open field arena for 60 minutes. Animals were tracked by photocell beams along the arena floor. Data were collected and analyzed for total locomotion via total cm travelled. Other data collected were the total time spent moving ‘total ambulatory time’ (sec) during the 60 minute trial and the average velocity (cm/sec) during the 60 minute trial.
as §2

With `Cc1cn(-c2cc(NC(=O)c3ccc(C)c(Nc4nccc(-c5cccnc5)n4)c3)cc(C(F)(F)F)c2)cn1` [nilotinib] the “anxiety (entries into center zone), open field” value [1] was “reduced anxiety (more entries into center zone, p<0.05)”, the “rotarod performance (latency to fall), post-treatment” value [2] was “perform better than the MPS mice treated with DMSO or bosutinib, and look more like the non-TG controls” and the “overall locomotion activity, open field” value [3] was “increased the overall locomotion (p<0.05) activity”.
